Measurements published in patent publication US20040175691A1, “Use of the KCNQ2 and KCNQ3 genes for the discovery of agents useful in the treatment of neurological disorders” (priority 1998, published 2004).

What was measured:
Type in all cases: cell-based
KCNQ2 = KCNQ2 (Homo sapiens, UniProt O43526, DEL417-446); experiment: Blockade of KCNQ2 channels expressed in Xenopus oocytes; set-up: Full-length KCNQ2 cDNAs were amplified from adult human brain cDNA; expressed in transfected cells; host or cells: Xenopus oocytes injected with cRNA; settings: oocytes; mean±s.e.m.
Experimental: Method: Full-length KCNQ2 cDNAs were amplified from adult human brain cDNA using the following primers ([…], […]) with the Expand Fidelity enzyme mixture (Boehringer Mannheim, Indianapolis). […] This region is also alternatively spliced in the KCNQ2 cDNA clone described by Biervert et al. (1998). Preparation, injection of cRNA and recording from oocytes was performed at room temperature as described previously (Dixon et al. 1996). The standard extracellular recording solution contained: 82 mM NaCl, 2 mM KCl, 1.8 mM CaCl2, 1 mM MgCl2, and 5 mM Na-HEPES (pH 7.6). Data collection and analysis were performed using pClamp software (Axon Instruments, Foster City, Calif.).
IC50 values are all expressed in μM, mean±s.e.m.

eag1 = target: T1, eag1 (Rattus norvegicus, UniProt Q63472); experiment: Blockade of cloned eag1 channel in oocytes; settings: mean±s.e.m., blockade incomplete
T1 construct: expressed in transfected cells; host or cells: oocytes (Xenopus)
T1 sequence (Q63472 1-962): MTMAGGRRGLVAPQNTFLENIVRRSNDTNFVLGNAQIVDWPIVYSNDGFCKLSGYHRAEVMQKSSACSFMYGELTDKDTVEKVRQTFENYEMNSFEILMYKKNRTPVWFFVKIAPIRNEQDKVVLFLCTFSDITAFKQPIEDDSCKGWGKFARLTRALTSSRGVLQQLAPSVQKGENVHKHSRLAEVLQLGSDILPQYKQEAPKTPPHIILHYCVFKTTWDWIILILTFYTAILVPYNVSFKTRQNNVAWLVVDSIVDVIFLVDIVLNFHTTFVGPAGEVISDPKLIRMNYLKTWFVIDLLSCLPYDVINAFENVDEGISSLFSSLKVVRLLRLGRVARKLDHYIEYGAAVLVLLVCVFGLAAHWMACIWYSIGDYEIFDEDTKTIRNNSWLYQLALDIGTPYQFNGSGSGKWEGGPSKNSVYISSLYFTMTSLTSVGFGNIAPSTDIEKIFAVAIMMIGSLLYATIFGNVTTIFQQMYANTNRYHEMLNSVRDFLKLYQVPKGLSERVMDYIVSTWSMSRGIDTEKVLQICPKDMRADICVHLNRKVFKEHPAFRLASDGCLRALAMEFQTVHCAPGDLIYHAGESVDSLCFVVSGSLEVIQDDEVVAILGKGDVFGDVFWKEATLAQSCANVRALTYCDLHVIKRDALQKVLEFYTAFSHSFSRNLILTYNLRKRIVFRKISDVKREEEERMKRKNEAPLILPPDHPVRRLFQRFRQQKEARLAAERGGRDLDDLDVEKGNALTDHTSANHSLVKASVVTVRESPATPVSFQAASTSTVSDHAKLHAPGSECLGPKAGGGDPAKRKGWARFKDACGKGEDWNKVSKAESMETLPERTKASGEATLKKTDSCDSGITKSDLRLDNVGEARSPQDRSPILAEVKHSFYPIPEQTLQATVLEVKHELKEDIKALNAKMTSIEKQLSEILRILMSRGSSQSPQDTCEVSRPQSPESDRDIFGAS

Kv1.2 = target: T2, Kv1.2 (Homo sapiens, UniProt P16389); experiment: Blockade of cloned Kv1.2 channel in oocytes; settings: mean±s.e.m.
T2 construct: expressed in transfected cells; host or cells: oocytes (Xenopus)
T2 sequence (P16389 whole entry): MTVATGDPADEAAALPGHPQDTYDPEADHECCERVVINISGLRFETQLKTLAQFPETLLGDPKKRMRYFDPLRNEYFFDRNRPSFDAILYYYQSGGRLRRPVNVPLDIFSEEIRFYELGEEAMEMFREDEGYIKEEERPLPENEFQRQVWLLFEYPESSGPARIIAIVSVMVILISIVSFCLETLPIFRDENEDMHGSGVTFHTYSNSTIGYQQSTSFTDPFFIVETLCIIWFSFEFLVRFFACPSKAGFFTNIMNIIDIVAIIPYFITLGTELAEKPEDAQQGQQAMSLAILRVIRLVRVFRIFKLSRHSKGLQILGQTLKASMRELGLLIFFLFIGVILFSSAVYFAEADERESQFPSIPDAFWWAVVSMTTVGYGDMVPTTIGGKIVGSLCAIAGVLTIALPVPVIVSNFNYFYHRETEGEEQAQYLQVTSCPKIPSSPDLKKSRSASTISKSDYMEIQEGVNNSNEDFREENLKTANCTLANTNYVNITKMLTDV

Kv4.3 = target: T3, Kv4.3 (Homo sapiens, UniProt Q9UK17); experiment: Blockade of cloned Kv4.3 channel in oocytes; settings: mean±s.e.m.
T3 construct: expressed in transfected cells; host or cells: oocytes (Xenopus)
T3 sequence (Q9UK17 1-655): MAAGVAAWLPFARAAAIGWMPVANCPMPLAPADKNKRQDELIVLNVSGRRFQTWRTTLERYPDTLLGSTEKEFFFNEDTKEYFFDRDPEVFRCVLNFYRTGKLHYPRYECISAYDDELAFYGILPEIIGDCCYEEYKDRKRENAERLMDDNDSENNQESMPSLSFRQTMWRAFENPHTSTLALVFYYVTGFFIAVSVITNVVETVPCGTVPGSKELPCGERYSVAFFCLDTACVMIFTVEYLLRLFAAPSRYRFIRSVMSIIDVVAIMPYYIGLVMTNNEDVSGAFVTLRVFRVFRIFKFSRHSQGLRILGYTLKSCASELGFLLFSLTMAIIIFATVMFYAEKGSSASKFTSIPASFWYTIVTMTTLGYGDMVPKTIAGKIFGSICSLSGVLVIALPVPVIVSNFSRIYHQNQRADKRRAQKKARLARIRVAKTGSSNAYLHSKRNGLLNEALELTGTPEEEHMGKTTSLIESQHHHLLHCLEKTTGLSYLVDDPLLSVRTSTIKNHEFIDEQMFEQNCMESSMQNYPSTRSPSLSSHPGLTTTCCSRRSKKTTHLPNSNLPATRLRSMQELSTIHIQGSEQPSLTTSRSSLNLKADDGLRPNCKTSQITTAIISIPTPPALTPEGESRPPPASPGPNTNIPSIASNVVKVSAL

Molecule O=C1c2ccccc2C(Cc2ccncc2)(Cc2ccncc2)c2ccccc21 [XE991, 10,10-bis(4-pyridinylmethyl)-9(10H)-anthracenone] has an IC50 (KCNQ2) of 0.71 ± 0.07 µM, an IC50 (eag1) of 49 ± 6 µM and an IC50 (Kv1.2) greater than 100 µM. It also gave an IC50 (Kv4.3) of 43 ± 7 µM.

In the case of O=C1N(c2ccccc2)c2ccccc2C1(Cc1ccncc1)Cc1ccncc1 [Linopirdine, 3,3-bis(4-pyridinylmethyl)-1-phenylindolin-2-one], the IC50 (KCNQ2) is reported as 4.8 ± 0.6 µM, the IC50 (eag1) is reported as 31 ± 3 µM and the IC50 (Kv1.2) is reported as 68 ± 6 µM. For the same molecule, the IC50 (Kv4.3) was 86 ± 14 µM.
